Assay results: patent US20240197666A1, “DITERPENOID COMPOUNDS THAT ACT ON PROTEIN KINASE C (PKC)” (K-Gen Therapeutics, Inc., priority 2021, published 2024)

Key:
C1b domain of human PKCα = target: T1, C1b domain of human PKCα (Homo sapiens, UniProt P17252); test: biochemical; assay type: binding; details: 3H-PDBu competition
T1 construct: Genes encoding C1b domains of human PKCα, δ, ε, θ, and PKD1 (PKCμ) were synthesized; made in house; host or cells: E. coli BL21(DE3)

C1b domain of human PKCε = target: T2, C1b domain of human PKCε (Homo sapiens, UniProt Q02156); test: biochemical; assay type: binding; details: 3H-PDBu competition
T2 construct: Genes encoding C1b domains of human PKCα, δ, ε, θ, and PKD1 (PKCμ) were synthesized; made in house; host or cells: E. coli BL21(DE3)
Method in brief: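 Ki derived by Cheng-Prusoff from IC50, with each protein batch's measured ^3H-PDBu Kd. Displacement of ^3H-PDBu from E. coli-produced GST-fused C1b domains or full-length human PKC was run 10 min at 37°C plus 20 min on ice, with filter capture and scintillation counting.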

Hela cells = test: In vitro scratch wound healing assay; assay type: cell-based; details: 24h
Experimental: Scratch wound healing assay creates a gap by scratching a confluent monolayer of cells to mimic a wound and then measures the ability of cells to fill up the gap (wound) in the presence of DMSO or test compounds. 1.2-1.5×10^5 Hela cells in 1 mL media RPMI-1640 with 10% FBS were seeded in 24-well plates. Cells were starved for overnight in the same media without FBS when cells became confluent. After starvation, a scratch was made in the middle of the well and the plates were washed three times to remove detached cells. DMSO or different concentrations of compounds were diluted and added to the cells. The assay plates were put into Incucyte S3 and scanned with 4× scanner setting regularly. The imaging results were exported and the wound area was analyzed by ImageJ. Wound healing or closure was calculated by the following formula: wound healing %=(wound area at 0h−wound area at 24h)/wound area 0h*100%. Relative wound healing was calculated by dividing wound healing % of compound treatment to that of DMSO*100%.

[1] = test system: NFκB-driven transcription in HeLa-NFκB luciferase reporter cell line; test: NFκB luciferase reporter assay; details: Homo sapiens, HeLa, 16 h, read-out: NFκB-luc HeLa cells EC50 (μM)

T2 sequence (Q02156 242-292 limits assumed): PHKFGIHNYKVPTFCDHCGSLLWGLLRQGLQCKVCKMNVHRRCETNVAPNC

Row | Structure (SMILES) | Ki (C1b domain of human PKCα) [nM] | Ki (C1b domain of human PKCε) [nM] | Relative wound healing to control (%) (Hela cells; 30 nM) | Relative wound healing to control (%) (Hela cells; 100 nM) | Relative wound healing to control (%) (Hela cells; 300 nM) | EC50 [1] [µM]
1 | CC1=C[C@H]2[C@@]3(O)[C@H](C)C[C@]4(OC(=O)[C@@H](N)CC5CCCCC5)[C@H]([C@@H]3C=C(CO)C[C@]2(O)C1=O)C4(C)C | 60 to 100 | 10 to 30 | 123 | 351 | 287 | 0.03 to 0.06
2 | CC1=C[C@H]2[C@@]3(O)[C@H](C)C[C@]4(OC(=O)[C@@H](N)C5Cc6ccccc6C5)[C@H]([C@@H]3C=C(CO)C[C@]2(O)C1=O)C4(C)C |  | 10 to 30 | 210 | 248 | 238 | 0.06 to 0.1
